One test relates to rat brain slices. Description: In vitro focal ischemia (focal OGD) in brain slices, TTC staining of infarct area. Conditions: 100 μM lidocaine added to OGD media, focally applied 2 hours at 100 μL/min, TTC stain. It counts as cell-based.
Test [1] deals with cortical neurons adjacent to the region of focal OGD perfusion. Description: Penumbra region of focal ischemia: intracellular recordings of membrane potential adjacent to the focal OGD perfusion. It counts as cell-based, rat. An excerpt: In order to mimic in vivo focal ischemia in the present in vitro system, oxygen-glucose deprived (OGD) medium was focally applied to a small area (0.25-0.5 mm wide or 5-10% of cortex) within the cortex of a brain slice, or within a slice of liver or heart tissue. […] The OGD medium for liver and heart slices was deoxygenated, glucose-free Krebs solution. Oxygen was displaced from the media by bubbling with 95% N2 and 5% CO2. […] Nozzle of the microperfusion system was made from a 23 gauge stainless steel tube and was mounted to a micromanipulator in order to ensure accurate placement. Using the micromanipulator the nozzle was lowered until it was just touching the surface of the slice.
OGD solution was focally perfused onto rat brain slices bathed in oxygenated aCSF solution. […] A representative recording of membrane potential is depicted in FIG. 5A. Focal perfusion of OGD caused neurons outside the region of perfusion to progressively depolarize. When edaravone (100 μM) was added to the OGD media this depolarization was attenuated. This is reflected in the mean data (FIG. 5B). Percentage neuronal survival after 75 minutes is reflected in FIG. 5C. Neurons were considered “dead” if they became irreversibly depolarized to approximately 0 mV. The addition of 100 μM edaravone doubled neuronal survival from OGD. […] In FIG. 5 the * denotes p<0.05.

A further test concerns cortical neurons. Nature of the test: Focal glutamate perfusion of brain slices, intracellular recordings of membrane potential. To be noted: aCSF containing 20 mM glutamate focally applied at 100 μL/min, neurons within the region of focal perfusion.

Excerpt for rat brain slices: In order to mimic in vivo focal ischemia in the present in vitro system, oxygen-glucose deprived (OGD) medium was focally applied to a small area (0.25-0.5 mm wide or 5-10% of cortex) within the cortex of a brain slice, or within a slice of liver or heart tissue. […] Oxygen was displaced from the media by bubbling with 95% N2 and 5% CO2. […] Nozzle of the microperfusion system was made from a 23 gauge stainless steel tube and was mounted to a micromanipulator in order to ensure accurate placement. Using the micromanipulator the nozzle was lowered until it was just touching the surface of the slice. […] In FIG. 1C, OGD solution was focally applied to the slice for 1 hour. […] In FIG. 1D, OGD solution was focally applied to the slice for 2 hours.

In the case of `CCN(CC)CC(=O)Nc1c(C)cccc1C` [Lidocaine, lidocaine], in the test with rat brain slices, the “area of cell death caused by OGD” value is on record as “reduced the area of cell death”. Turning to `CC1=NN(c2ccccc2)C(=O)C1` [edaravone], the “progressive depolarization of neurons outside the region of perfusion” value in test [1] (100 μM edaravone added to OGD media, approximately 0.9 mm from focal perfusion) was “attenuated”. In addition, the “neuronal survival from OGD” value in test [1] (100 μM edaravone, after 75 minutes, penumbra region) is “doubled”. Consider `N[C@@H](CCC(=O)O)C(=O)O` [glutamate], for which, in the test with cortical neurons, the “membrane potential of neuron (depolarization)” value was “caused a rapid depolarization of the neuron”.

These data come from patent publication US20110212484A1, “In Vitro Model of Focal Ischemia” (priority 2008, published 2011).
